Source: ChEMBL document CHEMBL3758081, “Synthesis and biological evaluation of new naphthalene substituted thiosemicarbazone derivatives as potent antifungal and anticancer agents” (Eur J Med Chem, 2016)
Converted amounts (≈) assume the structure as drawn.

Key:
Candida albicans = assay: Antifungal activity against Candida albicans ATCC-90028 after 48 hrs by broth microdilution method; type: functional; conditions: ATCC-90028, 48 h
[1] = Genotoxicity in Salmonella typhimurium TA1535/pSK1002 assessed as induction ratio at 0.625 mg/ml after 2 hrs by umuC assay in absence of Sprague-Dawley rat liver S9 fraction; type: toxicity, organism-based; conditions: salmonella enterica subsp. enterica serovar typhimurium
Salmonella typhimurium [2] = assay: Genotoxicity in Salmonella typhimurium TA1535/pSK1002 assessed as growth factor at 2.5 mg/ml after 2 hrs by umuC assay in presence of Sprague-Dawley rat liver S9 fraction; type: toxicity, organism-based; conditions: salmonella enterica subsp. enterica serovar typhimurium, s9, 2 h
Salmonella typhimurium [3] = assay: Genotoxicity in Salmonella typhimurium TA1535/pSK1002 assessed as growth factor at 0.3125 mg/ml after 2 hrs by umuC assay in presence of Sprague-Dawley rat liver S9 fraction; type: toxicity, organism-based; conditions: salmonella enterica subsp. enterica serovar typhimurium, s9, 2 h
[4] = Genotoxicity in Salmonella typhimurium TA1535/pSK1002 assessed as induction ratio at 0.3125 mg/ml after 2 hrs by umuC assay in absence of Sprague-Dawley rat liver S9 fraction; type: toxicity, organism-based; conditions: salmonella enterica subsp. enterica serovar typhimurium
Salmonella typhimurium [5] = assay: Genotoxicity in Salmonella typhimurium TA1535/pSK1002 assessed as growth factor at 0.156 mg/ml after 2 hrs by umuC assay in presence of Sprague-Dawley rat liver S9 fraction; type: toxicity, organism-based; conditions: salmonella enterica subsp. enterica serovar typhimurium, s9, 2 h
Salmonella typhimurium [6] = assay: Mutagenicity in Salmonella typhimurium TA98 at 0.156 mg/ml after 48 hrs by Ames MPF assay in absence of Sprague-Dawley rat liver S9 fraction; type: toxicity, organism-based; conditions: salmonella enterica subsp. enterica serovar typhimurium
Salmonella typhimurium [7] = assay: Mutagenicity in Salmonella typhimurium TA100 at 0.3125 mg/ml after 48 hrs by Ames MPF assay in presence of Sprague-Dawley rat liver S9 fraction; type: toxicity, organism-based; conditions: salmonella enterica subsp. enterica serovar typhimurium, s9, 48 h
Salmonella typhimurium [8] = assay: Mutagenicity in Salmonella typhimurium TA100 at 5 mg/ml after 48 hrs by Ames MPF assay in presence of Sprague-Dawley rat liver S9 fraction; type: toxicity, organism-based; conditions: salmonella enterica subsp. enterica serovar typhimurium, s9, 48 h
[9] = Genotoxicity in Salmonella typhimurium TA1535/pSK1002 assessed as induction ratio at 0.625 mg/ml after 2 hrs by umuC assay in presence of Sprague-Dawley rat liver S9 fraction; type: toxicity, organism-based; conditions: salmonella enterica subsp. enterica serovar typhimurium
Salmonella typhimurium [10] = assay: Mutagenicity in Salmonella typhimurium TA98 at 0.625 mg/ml after 48 hrs by Ames MPF assay in absence of Sprague-Dawley rat liver S9 fraction; type: toxicity, organism-based; conditions: salmonella enterica subsp. enterica serovar typhimurium
[11] = Genotoxicity in Salmonella typhimurium TA1535/pSK1002 assessed as induction ratio at 0.3125 mg/ml after 2 hrs by umuC assay in presence of Sprague-Dawley rat liver S9 fraction; type: toxicity, organism-based; conditions: salmonella enterica subsp. enterica serovar typhimurium
Candida tropicalis = assay: Antifungal activity against Candida tropicalis NRLL Y-12968 after 48 hrs by broth microdilution method; type: functional; conditions: NRLL Y-12968, 48 h
Salmonella typhimurium [12] = assay: Mutagenicity in Salmonella typhimurium TA98 at 5 mg/ml after 48 hrs by Ames MPF assay in presence of Sprague-Dawley rat liver S9 fraction; type: toxicity, organism-based; conditions: salmonella enterica subsp. enterica serovar typhimurium, s9, 48 h
[13] = Genotoxicity in Salmonella typhimurium TA1535/pSK1002 assessed as induction ratio at 1.25 mg/ml after 2 hrs by umuC assay in absence of Sprague-Dawley rat liver S9 fraction; type: toxicity, organism-based; conditions: salmonella enterica subsp. enterica serovar typhimurium
Salmonella typhimurium [14] = assay: Mutagenicity in Salmonella typhimurium TA98 at 2.5 mg/ml after 48 hrs by Ames MPF assay in absence of Sprague-Dawley rat liver S9 fraction; type: toxicity, organism-based; conditions: salmonella enterica subsp. enterica serovar typhimurium
Salmonella typhimurium [15] = assay: Mutagenicity in Salmonella typhimurium TA98 at 1.25 mg/ml after 48 hrs by Ames MPF assay in presence of Sprague-Dawley rat liver S9 fraction; type: toxicity, organism-based; conditions: salmonella enterica subsp. enterica serovar typhimurium, s9, 48 h
Salmonella typhimurium [16] = assay: Genotoxicity in Salmonella typhimurium TA1535/pSK1002 assessed as growth factor at 2.5 mg/ml after 2 hrs by umuC assay in absence of Sprague-Dawley rat liver S9 fraction; type: toxicity, organism-based; conditions: salmonella enterica subsp. enterica serovar typhimurium
Salmonella typhimurium [17] = assay: Mutagenicity in Salmonella typhimurium TA100 at 1.25 mg/ml after 48 hrs by Ames MPF assay in absence of Sprague-Dawley rat liver S9 fraction; type: toxicity, organism-based; conditions: salmonella enterica subsp. enterica serovar typhimurium
[18] = Cytotoxicity against mouse NIH/3T3 cells after 24 hrs by XTT assay; type: cell-based; conditions: NIH3T3, 24 h
Salmonella typhimurium [19] = assay: Genotoxicity in Salmonella typhimurium TA1535/pSK1002 assessed as growth factor at 0.625 mg/ml after 2 hrs by umuC assay in absence of Sprague-Dawley rat liver S9 fraction; type: toxicity, organism-based; conditions: salmonella enterica subsp. enterica serovar typhimurium
[20] = Genotoxicity in Salmonella typhimurium TA1535/pSK1002 assessed as induction ratio at 0.156 mg/ml after 2 hrs by umuC assay in presence of Sprague-Dawley rat liver S9 fraction; type: toxicity, organism-based; conditions: salmonella enterica subsp. enterica serovar typhimurium
Salmonella typhimurium [21] = assay: Mutagenicity in Salmonella typhimurium TA100 at 2.5 mg/ml after 48 hrs by Ames MPF assay in absence of Sprague-Dawley rat liver S9 fraction; type: toxicity, organism-based; conditions: salmonella enterica subsp. enterica serovar typhimurium

MIC (Candida albicans)	MIC (Candida tropicalis)	Structure (SMILES)	fold induction at 2 h, 0.625 mg/ml [1]	Activity (Salmonella typhimurium [2])	Activity (Salmonella typhimurium [3])	fold induction at 2 h, 0.3125 mg/ml [4]	Activity (Salmonella typhimurium [5])	fold change (FC) (Salmonella typhimurium [6])	fold change (FC) (Salmonella typhimurium [7])	fold change (FC) (Salmonella typhimurium [8])	fold induction at 2 h, 0.625 mg/ml [9]	fold change (FC) (Salmonella typhimurium [10])	fold induction at 2 h, 0.3125 mg/ml [11]	fold change (FC) (Salmonella typhimurium [12])	fold induction at 2 h, 1.25 mg/ml [13]	fold change (FC) (Salmonella typhimurium [14])	fold change (FC) (Salmonella typhimurium [15])	Activity (Salmonella typhimurium [16])	fold change (FC) (Salmonella typhimurium [17])	IC50 [18]	other results
250 µg/mL (≈ 732 µM)	250 µg/mL (≈ 732 µM)	Fc1cccc(/C=N/NC(=S)Nc2cccc3ccccc23)c1F	1.75	0.231	0.121	1.79	0.274	0.17	1.07	1.02	1.39	0	2.81	0.56	1.63	0	0.84	0.311	0.42	> 500 µg/mL	Activity (Salmonella typhimurium [19]): 0.137; fold induction at 2 h, 0.156 mg/ml [20]: 5.34; fold change (FC) (Salmonella typhimurium [21]): 0.18
250 µg/mL (≈ 732 µM)	250 µg/mL (≈ 732 µM)	Fc1ccc(F)c(/C=N/NC(=S)Nc2cccc3ccccc23)c1	6	0.236	0.23	1.3	0.235	0.51	0.34	0.78	5.34	0	1.4	0.65	1.79	0	0.65	0.137	0.36	> 500 µg/mL	Activity (Salmonella typhimurium [19]): 0.14; fold induction at 2 h, 0.156 mg/ml [20]: 1.5; fold change (FC) (Salmonella typhimurium [21]): 0.48
